Source: patent US6399583B1, “Hybrid anthracyclines from genetically engineered streptomyces galilaeus strains, process for production and uses thereof” (Galilaeus Oy, priority 1998, dated 2002)
Read-outs that look alike come from different tables or passages of the source.

Assays:
[1] = system: P388 leukemia; assay: Cytotoxic activity in vivo: P388 leukemia model; set-up: species or system mice; conditions: 10^6 P388 cells i.p. day 0
Text: P388 leukemia was maintained by serial intraperitoneal (i.p.) transplantations in DBA/2JBom female mice purchased from M & B A/S, Ry, Denmark. The animals were maintained at the facilities of Central Animal Laboratory, University of Turku. The management of the animal unit is based on and followed the guidelines: “European Convention for the protection of Vertebrate Animals used for Experimental and other Scientific Purposes, European Treaty Series No. 123 (EU No. 609/86), Official Journal of European Communities No. L 358, Strasbourg Nov. 24, 1986”, and “The Statute No. 1360/90 of the Finnish Law, Helsinki Dec. 21, 1990: Asetus kokeellisiin ja muihin tieteellisiin tarkoituksiin käytettävien selkärankaisten eläinten suojelemiseksi tehdyn eurooppalaisen yleissopimuksen voimaansaattamisesta. Suomen s{umlaut over (aa)}doskokoelma.”
The in vivo tests were started by injecting 10^6 P388 cells suspended in Dulbecco's phosphate buffered saline i.p. in mice on day 0. Groups of 3 mice were used. The drugs were administered i.p. on day 1 on the basis of individual body weight. The control group received vehicle (10% ethanol in Dulbecco's phosphate buffered saline).

[2] = system: Lewis lung carcinoma (LL/2); assay: Cytotoxicity assay, ATP detection, LL/2; format: cell-based, mouse; conditions: LL/2 cells in vitro, read-out: ED50 LL/2
Method: (§1) The cytotoxicity tests were performed in 96-well microtiter plates (sterile white plates with clear bottom, Corning Costar Corporation, Cambridge, Mass., USA). The anthracyclines were pipetted into the plates in 10 μl of ethanol, pure ethanol was used for control plates. Daunorubicin and aclarubicin were used as positive controls. When the ethanol had evaporated, the cells were seeded into the plates in 100 μl of appropriate medium. The number of cells seeded per well was 2500 with MES-SA, 3000 with MES-SA/D×5, 3000 with LL/2, 2000 with B16-F0 and B16-F1, 2000 with KLN-205 and 8000 with MLTC-1. The ATP content of the cells was measured after incubating the cells for three days at 37° C. with 5% CO2.
(§2) The growth medium was removed by turning the plates over, and 200 μl of ATP extraction reagent, Somalyze, were added to the wells. The plates were then incubated for 30 minutes at room temperature. The ATP measurement was performed with Luminoskan luminometer (Labsystems Oy, Helsinki, Finland) at 22° C. 20 μl of ATP monitoring reagent containing luciferin and luciferase was dispensed, and an integral measurement of 10 s with 2 s lag time was performed for each well. All reagents used were supplied by Bio-Orbit Oy, Turku, Finland.
(§3) The direct luminometer output (in relative light units, RLUS) was used to calculate the cytotoxic effect. This light signal is directly proportional to the amount of […] in a wide range (determined with Bio-Orbit ATP standard, data not shown). On the other hand, the amount of ATP is directly proportional to the amount of living cells (Kangas et al., 1984). The results are expressed as percentages of the control value of untreated cells. An IC50 value (the drug concentration resulting to an ATP signal of 50% of the untreated control signal) was graphically estimated from the % of control vs. drug concentration plot.
(§4) H075-4a was also tested with several mouse cell lines in vitro (all were purchased from ATCC, Rockville, Md., USA): Lewis lung carcinoma (LL/2) (CRL-1642), B16-F0 melanoma (CRL-6322), B16-F1 melanoma (CRL-6323), KLN-205 lung squamous cell carcinoma (CRL-1453) and MLTC-1 leydig cell tumor (CRL-2065) using daunomycin, aclarubicin and H075-1a (MA 144U1) as references.
(§5) All cells grew as monolayers and were cultured at 37° C. with 5% CO2 according to ATCC standard instructions for each cell line: LL/2 in Dulbecco's modified Eagle's medium with 4.5 g/l glucose and 10% FCS, B16-F0 and B16-F1 in MEM (Eagle) in Earle's BSS with non-essential amino acids and 10% FCS, KLN-205 in MEM (Eagle) in Earle's BSS with non-essential amino acids and 10% FCS, MLTC-1 in RPMI 1640 with 25 mM HEPES and 10% FBS. All media were purchased from Gibco BRL, the serum was Gibco BRL Foetal Bovine Serum. […]

[3] = system: L1210 mouse lymphocytic leukemia cells; assay: Flow cytometry (mode of action), cell cycle phases; format: cell-based; conditions: for G1 (%) / G2 (%) / S + M (%) / Cells (1000/ml): L1210 cells, 24 h incubation; for G1 (%): percentage of cells in phase G1; for G2 (%): percentage of cells in phase G2; for S + M (%): percentage of cells in phases S + M; for Cells (1000/ml): starting cell number 46000 cells/ml
Method: L1210 mouse lymphocytic leukemia cells growing in suspension culture were maintained at exponential growth in Dulbecco's modified Eagle's medium with 4.5 g/l glucose and 10% FBS, at 37° C. with 5% CO2. The experiments were started by adding the ethanol-dissolved anthracyclines, in amounts yielding to the appropriate final concentrations, to 25 cm^2 cell culture flasks. After the ethanol had evaporated, 5 ml of an approximately 50 000 cells per ml suspension was added to the flasks. Flow cytometric analysis was made of the original cell suspension and after one, two and three days incubation with or without the drugs.
Cells were prepared for flow cytometric DNA analysis according to the method of Vindelov et al. (1985). The analysis was performed with an Epics XL flow cytometer (Coulter Corporation, Miami, Fla.). Samples were illuminated with a […] air-cooled argon ion laser (488 nm) and the fluorescence of propidium iodide was detected through 620-nm band pass filter. The number of cells in each sample was separately counted by adding an internal calibrator (50 μl of a solution containing 1×10^6 Fluoresbrite beads/ml) to 50 μl of cell suspension.
Based on the flow cytometric studies, the cell cycle phases for the cells studied could be detected. Phase G1 is the stage for RNA and protein synthesis, but not for replication. Transition from phase G1 to phase S means the initiation of replication, and the phase will last until all of the DNA has been replicated. The period from phase S up to mitosis (M) is phase G2.

[4] = system: B16-F1 melanoma; assay: Cytotoxicity assay, ATP detection, B16-F1; format: cell-based, mouse; conditions: B16-F1 cells in vitro, read-out: ED50 B16-F1
Method: as §1, §2, §3, §4, §5

[5] = system: SK-N-MC; assay: Cytotoxicity assay, ATP detection, SK-N-MC; format: cell-based; conditions: SK-N-MC cells in vitro; read-out: ED50 SK-N-MC

SMILES	Median survival days (range) ([1]; 1 mg/kg i.p. on day 1)	Median survival days (range) ([1]; 2 mg/kg i.p. on day 1)	Median survival days (range) ([1]; 4 mg/kg i.p. on day 1)	Median survival days (range) ([1]; 6 mg/kg i.p. on day 1)	EC50 [2]	G1 (%) ([3]; concentration 1 × 10^−8M)	G2 (%) ([3]; concentration 1 × 10^−8M)	S + M (%) ([3]; concentration 1 × 10^−8M)	Cells (1000/ml) ([3]; concentration 1 × 10^−8M)	G1 (%) ([3]; concentration 3.3 × 10^−8M)	G2 (%) ([3]; concentration 3.3 × 10^−8M)	S + M (%) ([3]; concentration 3.3 × 10^−8M)	Cells (1000/ml) ([3]; concentration 3.3 × 10^−8M)	cell cycle phase in which cells are arrested ([3]; flow cytometric DNA analysis)	EC50 [4]	EC50 [5]	EC50 ([2]; Mus musculus)	EC50 ([4]; Mus musculus)
CCC1(O)CC(OC2CC(N(C)C)C(OC3CC(O)C(OC4CC(O)C(O)C(C)O4)C(C)O3)C(C)O2)c2c(O)c3c(c(O)c2C1C(=O)OC)C(=O)c1cccc(O)c1C3=O (stereo not shown) [Compound H075-4a]	14 (13-15) days	14 (13-16) days	15 (13-15) days	15 (15-16) days	8 nM	40%	12%	48%	88 1000/ml	45%	19%	36%	67 1000/ml	arrested the cells in phase G1	2 nM	9 nM	–	–
COc1cccc2c1C(=O)c1c(O)c3c(c(O)c1C2=O)C[C@@](O)(C(C)=O)C[C@@H]3O[C@H]1C[C@H](N)[C@H](O)[C@H](C)O1 [Daunorubicin]	–	–	14 (14-16) days	–	–	11%	38%	51%	66 1000/ml	6%	66%	27%	23 1000/ml	–	–	3 nM	15 nM	8 nM
